# Literature values as cited in US20240000829A1, “COPOLYMER CONTAINING POLY(ETHYLENE GLYCOL) AND POLY(L-AMINO ACID DERIVATIVE), MICROPARTICLES THEREOF AND USE THEREOF IN PHARMACEUTICAL COMPOSITION” (University of Tsukuba, priority 2020, published 2024).
# System: patients with hepatic disorders such as hepatic cirrhosis
# Settings: reported; Non-Patent Document 1
smiles,measurement,value
NCCC[C@H](N)C(=O)O [L-ornithine],ammonia level / concentration,reduced ammonia levels
